How the values were obtained:
[1] = Concentration required (in vitro) to displace 50% specific binding of [3H]clozapine to non-muscarinic sites in rat brain in presence of 1 uM atropine; type: tissue-based
Dopamine receptor = test: Relative affinity for dopamine receptor by displacement of [3H]spiroperidol (2.2 nM) from (in vitro) dopamine binding sites in rat caudate nuclei
[2] = biological target: Muscarinic acetylcholine receptor; test: Concentration required (in vitro) to displace 50% specific binding of [3H]clozapine to Muscarinic acetylcholine receptor in rat brain; type: tissue-based
[3] = Concentration required (in vitro) to displace 50% specific binding of [3H]clozapine to sites in rat brain

Row | IC50 [1] [nM] | IC50 (Dopamine receptor) [nM] | IC50 [2] [nM] | IC50 [3] [nM] | SMILES
1 | 3.7 | 808 | 610 | – | CN1CCN(C2=Cc3ccccc3Cc3ccccc32)CC1
2 | – | 758 | – | 17 | CN1CCN(C2=Nc3ccccc3Nc3ccc(Cl)cc32)CC1 [ISOCLOZAPINE]
3 | 38 | 2480 | 49 | – | CN1CCN(C2=Nc3cc(Cl)ccc3Oc3ccccc32)CC1 [ISOLOXAPINE]
4 | 88 | 32400 | 12 | – | CN1CCN(C2=Nc3cc(Cl)ccc3N(C)c3ccccc32)CC1
5 | 7 | 678 | 622 | – | CN1CCC(C2=Cc3cc(Cl)ccc3Cc3ccccc32)CC1
6 | 10 | 39 | 290 | – | CN1CCN(C2=Cc3ccccc3Cc3ccc(Cl)cc32)CC1
7 | > 10000 | > 10000 | > 10000 | – | CC1CCN(C2=Cc3cc(Cl)ccc3Cc3ccccc32)CC1
8 | > 10000 | – | > 10000 | – | CC1CCN(C2=Cc3ccccc3Cc3ccc(Cl)cc32)CC1
9 | 13 | 342 | 670 | – | CN1CCN(C2=Cc3cc(Cl)ccc3Cc3ccccc32)CC1

Row | SMILES | IC50 [1] [nM] | IC50 (Dopamine receptor) [nM] | IC50 [2] [nM] | IC50 [3] [nM]
10 | CN1CCN(C2=Nc3cc(Cl)ccc3Nc3ccccc32)CC1 [CLOZAPINE] | 13 | – | – | –

Source: ChEMBL document CHEMBL1121688 (J Med Chem, 1981)
